Reference: ChEMBL document CHEMBL3045446, “In vitro antimicrobial and antimycobacterial activity of some chalcones and their derivatives” (2013)
In brackets after ≈: the same amount, converted by molar mass.

Legend:
Format in all cases: functional
Salmonella typhi [1] = experiment: Antimicrobial activity against Salmonella enterica subsp. enterica serovar Typhi MTCC 733 assessed as diameter of growth inhibition zone after 24 hr
Candida albicans [2] = experiment: Antimicrobial activity against Candida albicans MTCC 183 assessed as growth inhibition after 48 hr by agar streak dilution method; conditions: MTCC 183, 48 h
Klebsiella pneumoniae [3] = experiment: Antimicrobial activity against Klebsiella pneumoniae MTCC 109 assessed as growth inhibition after 24 hr by agar streak dilution method; conditions: MTCC 109, 24 h
Salmonella typhi [4] = experiment: Antimicrobial activity against Salmonella enterica subsp. enterica serovar Typhi MTCC 733 assessed as growth inhibition after 24 hr by agar streak dilution method; conditions: MTCC 733, 24 h
Pseudomonas aeruginosa [5] = experiment: Antimicrobial activity against Pseudomonas aeruginosa MTCC 741 assessed as diameter of growth inhibition zone after 24 hr
Staphylococcus aureus [6] = experiment: Antimicrobial activity against Staphylococcus aureus MTCC 96 assessed as growth inhibition after 24 hr by agar streak dilution method; conditions: MTCC 96, 24 h
Proteus vulgaris [7] = experiment: Antimicrobial activity against Proteus vulgaris MTCC 1771 assessed as diameter of growth inhibition zone after 24 hr
Shigella flexneri [8] = experiment: Antimicrobial activity against Shigella flexneri MTCC1457 assessed as diameter of growth inhibition zone after 24 hr
Aspergillus clavatus [9] = experiment: Antimicrobial activity against Aspergillus clavatus MTCC 1323 assessed as growth inhibition after 48 hr by agar streak dilution method; conditions: MTCC 1323, 48 h
Bacillus cereus [10] = experiment: Antimicrobial activity against Bacillus cereus MTCC 430 assessed as diameter of growth inhibition zone after 24 hr
Candida albicans [11] = experiment: Antimicrobial activity against Candida albicans MTCC 183 assessed as diameter of growth inhibition zone after 48 hr
Aspergillus clavatus [12] = experiment: Antimicrobial activity against Aspergillus clavatus MTCC 1323 assessed as diameter of growth inhibition zone after 48 hr
Aspergillus fumigatus [13] = experiment: Antimicrobial activity against Aspergillus fumigatus MTCC 343 assessed as diameter of growth inhibition zone after 48 hr
Aspergillus niger [14] = experiment: Antimicrobial activity against Aspergillus niger MTCC 282 assessed as growth inhibition after 48 hr by agar streak dilution method; conditions: MTCC 282, 48 h
Shigella flexneri [15] = experiment: Antimicrobial activity against Shigella flexneri MTCC1457 assessed as growth inhibition after 24 hr by agar streak dilution method; conditions: MTCC1457, 24 h
Klebsiella pneumoniae [16] = experiment: Antimicrobial activity against Klebsiella pneumoniae MTCC 109 assessed as diameter of growth inhibition zone after 24 hr
Aspergillus fumigatus [17] = experiment: Antimicrobial activity against Aspergillus fumigatus MTCC 343 assessed as growth inhibition after 48 hr by agar streak dilution method; conditions: MTCC 343, 48 h
[18] = test system: Mycobacterium tuberculosis; experiment: Antituberculosis activity against Mycobacterium tuberculosis H37Rv assessed as growth inhibition after 12 to 28 days by L-J MIC method; conditions: for MIC: Mycobacterium tuberculosis, H37Rv
Staphylococcus aureus [19] = experiment: Antimicrobial activity against Staphylococcus aureus MTCC 96 assessed as diameter of growth inhibition zone after 24 hr
Escherichia coli [20] = experiment: Antimicrobial activity against Escherichia coli MTCC 739 assessed as growth inhibition after 24 hr by agar streak dilution method; conditions: MTCC 739, 24 h
Bacillus cereus [21] = experiment: Antimicrobial activity against Bacillus cereus MTCC 430 assessed as growth inhibition after 24 hr by agar streak dilution method; conditions: MTCC 430, 24 h
Aspergillus niger [22] = experiment: Antimicrobial activity against Aspergillus niger MTCC 282 assessed as diameter of growth inhibition zone after 48 hr
Pseudomonas aeruginosa [23] = experiment: Antimicrobial activity against Pseudomonas aeruginosa MTCC 741 assessed as growth inhibition after 24 hr by agar streak dilution method; conditions: MTCC 741, 24 h
Escherichia coli [24] = experiment: Antimicrobial activity against Escherichia coli MTCC 739 assessed as diameter of growth inhibition zone after 24 hr
Proteus vulgaris [25] = experiment: Antimicrobial activity against Proteus vulgaris MTCC 1771 assessed as growth inhibition after 24 hr by agar streak dilution method; conditions: MTCC 1771, 24 h

Row | SMILES | diameter of the inhibition zone (DIZ) (Salmonella typhi [1]) | MIC (Candida albicans [2]) | MIC (Klebsiella pneumoniae [3]) | MIC (Salmonella typhi [4]) | diameter of the inhibition zone (DIZ) (Pseudomonas aeruginosa [5]) | MIC (Staphylococcus aureus [6]) | diameter of the inhibition zone (DIZ) (Proteus vulgaris [7]) | diameter of the inhibition zone (DIZ) (Shigella flexneri [8]) | MIC (Aspergillus clavatus [9]) | diameter of the inhibition zone (DIZ) (Bacillus cereus [10]) | diameter of the inhibition zone (DIZ) (Candida albicans [11]) | diameter of the inhibition zone (DIZ) (Aspergillus clavatus [12]) | diameter of the inhibition zone (DIZ) (Aspergillus fumigatus [13]) | MIC (Aspergillus niger [14]) | MIC (Shigella flexneri [15]) | diameter of the inhibition zone (DIZ) (Klebsiella pneumoniae [16]) | MIC (Aspergillus fumigatus [17]) | growth inhibition (GI) [18] | MIC [18] | diameter of the inhibition zone (DIZ) (Staphylococcus aureus [19]) | also measured
1 | N#Cc1c(-c2ccc(Cl)cc2)cc(-c2ccc(Nc3cc(=O)oc4ccccc34)cc2)nc1N | 24 mm | 6.25 µg/mL (≈ 13.4 µM) | 6.25 µg/mL (≈ 13.4 µM) | 12.5 µg/mL (≈ 26.9 µM) | 19 mm | 12.5 µg/mL (≈ 26.9 µM) | 26 mm | 23 mm | 25 µg/mL (≈ 53.8 µM) | 21 mm | 26 mm | 21 mm | 24 mm | 25 µg/mL (≈ 53.8 µM) | 12.5 µg/mL (≈ 26.9 µM) | 25 mm | 12.5 µg/mL (≈ 26.9 µM) | 98% | 100 µg/mL (≈ 215 µM) | 24 mm | MIC (Escherichia coli [20]): 25 µg/mL (≈ 53.8 µM); MIC (Bacillus cereus [21]): 25 µg/mL (≈ 53.8 µM); diameter of the inhibition zone (DIZ) (Aspergillus niger [22]): 20 mm; MIC (Pseudomonas aeruginosa [23]): 50 µg/mL (≈ 108 µM); diameter of the inhibition zone (DIZ) (Escherichia coli [24]): 21 mm; MIC (Proteus vulgaris [25]): 6.25 µg/mL (≈ 13.4 µM)
2 | Nc1nc(-c2ccc(F)cc2)cc(-c2ccc(Nc3cc(=O)oc4ccccc34)cc2)n1 | 23 mm | 25 µg/mL (≈ 58.9 µM) | 3.12 µg/mL (≈ 7.35 µM) | 12.5 µg/mL (≈ 29.5 µM) | 24 mm | 12.5 µg/mL (≈ 29.5 µM) | 25 mm | 21 mm | 6.25 µg/mL (≈ 14.7 µM) | 23 mm | 20 mm | 26 mm | 27 mm | 12.5 µg/mL (≈ 29.5 µM) | 12.5 µg/mL (≈ 29.5 µM) | 28 mm | 6.25 µg/mL (≈ 14.7 µM) | 99% | 62.5 µg/mL (≈ 147 µM) | 24 mm | MIC (Escherichia coli [20]): 6.25 µg/mL (≈ 14.7 µM); MIC (Bacillus cereus [21]): 12.5 µg/mL (≈ 29.5 µM); diameter of the inhibition zone (DIZ) (Aspergillus niger [22]): 22 mm; MIC (Pseudomonas aeruginosa [23]): 12.5 µg/mL (≈ 29.5 µM); diameter of the inhibition zone (DIZ) (Escherichia coli [24]): 25 mm; MIC (Proteus vulgaris [25]): 6.25 µg/mL (≈ 14.7 µM)
3 | CC(=O)N1N=C(c2ccc(Nc3cc(=O)oc4ccccc34)cc2)CC1c1ccc(Cl)cc1 (stereo unspecified) | 18 mm | 50 µg/mL (≈ 109 µM) | 50 µg/mL (≈ 109 µM) | 50 µg/mL (≈ 109 µM) | 14 mm | 50 µg/mL (≈ 109 µM) | 19 mm | 20 mm | 100 µg/mL (≈ 218 µM) | 17 mm | 19 mm | 15 mm | 17 mm | 100 µg/mL (≈ 218 µM) | 50 µg/mL (≈ 109 µM) | 21 mm | 50 µg/mL (≈ 109 µM) | 97% | 250 µg/mL (≈ 546 µM) | 19 mm | MIC (Escherichia coli [20]): 100 µg/mL (≈ 218 µM); MIC (Bacillus cereus [21]): 100 µg/mL (≈ 218 µM); diameter of the inhibition zone (DIZ) (Aspergillus niger [22]): 16 mm; MIC (Pseudomonas aeruginosa [23]): 100 µg/mL (≈ 218 µM); diameter of the inhibition zone (DIZ) (Escherichia coli [24]): 15 mm; MIC (Proteus vulgaris [25]): 50 µg/mL (≈ 109 µM)
4 | CC(=O)N1N=C(c2ccc(Nc3cc(=O)oc4ccccc34)cc2)CC1c1ccc(Cl)cc1Cl (stereo unspecified) | 17 mm | 100 µg/mL (≈ 203 µM) | 25 µg/mL (≈ 50.8 µM) | 50 µg/mL (≈ 102 µM) | 20 mm | 12.5 µg/mL (≈ 25.4 µM) | 22 mm | 17 mm | 100 µg/mL (≈ 203 µM) | 21 mm | 15 mm | 16 mm | 19 mm | 100 µg/mL (≈ 203 µM) | 50 µg/mL (≈ 102 µM) | 19 mm | 50 µg/mL (≈ 102 µM) | 96% | 500 µg/mL (≈ 1020 µM) | 22 mm | MIC (Escherichia coli [20]): 50 µg/mL (≈ 102 µM); MIC (Bacillus cereus [21]): 12.5 µg/mL (≈ 25.4 µM); diameter of the inhibition zone (DIZ) (Aspergillus niger [22]): 17 mm; MIC (Pseudomonas aeruginosa [23]): 25 µg/mL (≈ 50.8 µM); diameter of the inhibition zone (DIZ) (Escherichia coli [24]): 18 mm; MIC (Proteus vulgaris [25]): 12.5 µg/mL (≈ 25.4 µM)
5 | N#Cc1c(-c2ccccc2)cc(-c2ccc(Nc3cc(=O)oc4ccccc34)cc2)nc1N | 23 mm | 25 µg/mL (≈ 58.1 µM) | 25 µg/mL (≈ 58.1 µM) | 12.5 µg/mL (≈ 29 µM) | 18 mm | 50 µg/mL (≈ 116 µM) | 19 mm | 17 mm | 12.5 µg/mL (≈ 29 µM) | 19 mm | 19 mm | 23 mm | 21 mm | 25 µg/mL (≈ 58.1 µM) | 50 µg/mL (≈ 116 µM) | 21 mm | 25 µg/mL (≈ 58.1 µM) | 96% | 500 µg/mL (≈ 1160 µM) | 17 mm | MIC (Escherichia coli [20]): 50 µg/mL (≈ 116 µM); MIC (Bacillus cereus [21]): 50 µg/mL (≈ 116 µM); diameter of the inhibition zone (DIZ) (Aspergillus niger [22]): 21 mm; MIC (Pseudomonas aeruginosa [23]): 50 µg/mL (≈ 116 µM); diameter of the inhibition zone (DIZ) (Escherichia coli [24]): 19 mm; MIC (Proteus vulgaris [25]): 25 µg/mL (≈ 58.1 µM)
6 | COc1ccc(-c2cc(-c3ccc(Nc4cc(=O)oc5ccccc45)cc3)nc(N)c2C#N)cc1 | 22 mm | 12.5 µg/mL (≈ 27.1 µM) | 12.5 µg/mL (≈ 27.1 µM) | 12.5 µg/mL (≈ 27.1 µM) | 25 mm | 6.25 µg/mL (≈ 13.6 µM) | 26 mm | 24 mm | 6.25 µg/mL (≈ 13.6 µM) | 27 mm | 25 mm | 25 mm | 21 mm | 12.5 µg/mL (≈ 27.1 µM) | 12.5 µg/mL (≈ 27.1 µM) | 22 mm | 12.5 µg/mL (≈ 27.1 µM) | 96% | 62.5 µg/mL (≈ 136 µM) | 27 mm | MIC (Escherichia coli [20]): 3.12 µg/mL (≈ 6.78 µM); MIC (Bacillus cereus [21]): 6.25 µg/mL (≈ 13.6 µM); diameter of the inhibition zone (DIZ) (Aspergillus niger [22]): 25 mm; MIC (Pseudomonas aeruginosa [23]): 6.25 µg/mL (≈ 13.6 µM); diameter of the inhibition zone (DIZ) (Escherichia coli [24]): 28 mm; MIC (Proteus vulgaris [25]): 6.25 µg/mL (≈ 13.6 µM)
